In ChEMBL document CHEMBL1201862, “PubChem BioAssay data set” (2004):
“And” between values parts separate entries of the source, which are not always exact repeats. Equal entries are not always repeated.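 Where inhibition never reached the appropriate level, the endpoint shown equals the highest concentration tested. Otherwise, values were interpolated linearly from a five-concentration, 48-hour dose response in 96-well plates. The concentration for 50% growth inhibition is given as GI50.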 The source made the active and inactive calls. No stated cut-off is given here; in the data, active = GI50 up to about 1.1 µM and inactive = higher.

Assays:
Assay in all cases: inhibition of tumour cell growth, NCI panel, 48 h
[1] = tested on: CAKI-1
[2] = tested on: COLO 205
[3] = tested on: HCT-116
[4] = tested on: HOP-92
[5] = tested on: Hs-578T
[6] = tested on: IGROV-1
[7] = tested on: LOX IMVI
[8] = tested on: M14
[9] = tested on: MDA-MB-231
[10] = tested on: MDA-MB-435
[11] = tested on: NCI-H23
[12] = tested on: OVCAR-3
[13] = tested on: OVCAR-5
[14] = tested on: PC-3
[15] = tested on: RXF 393
[16] = tested on: SK-MEL-2
[17] = tested on: SNB-19
[18] = tested on: TK-10
[19] = tested on: UACC-62
[20] = tested on: SR

Measured: GI50

CCOC(=O)CN1C(=O)NC(C)(c2ccccc2)C1=O (configuration not stated)
inactive: [1] > 100 µM | [2] > 100 µM | [3] > 100 µM | [4] > 100 µM | [5] > 100 µM | [6] > 100 µM | [7] > 100 µM | [8] > 100 µM | [9] > 100 µM | [10] > 100 µM | [11] > 100 µM | [12] > 100 µM | [13] > 100 µM | [14] > 100 µM | [15] > 100 µM | [16] > 100 µM | [17] > 100 µM | [18] > 100 µM | [19] > 100 µM

CC1(C)CC(=O)c2c(nc3c(ccc4ccccc43)c2-c2ccc(NC(=O)CCCCC(=O)Nc3ccc(-c4c5c(nc6c4ccc4ccccc46)CC(C)(C)CC5=O)cc3)cc2)C1
inactive: [1] 35.3 µM | [2] 26.7 µM | [3] 23.9 µM | [5] 32.1 µM | [6] 14 µM | [7] 17.6 µM | [8] 32.3 µM | [9] 19.3 µM | [10] 26.2 µM | [12] 25.6 µM | [13] 30.9 µM | [14] 27.4 µM | [15] 78.3 µM | [16] 33 µM | [17] 69.2 µM | [18] 48.6 µM

Oc1c(OCc2nnc(CCCCCCCCc3nnc(COc4ccc5ccccc5c4O)n3Nc3ccccc3)n2Nc2ccccc2)ccc2ccccc12
inactive: [3] 9.2 µM | [4] 15.7 µM | [5] 8.17 µM | [6] 12 µM | [8] 1.97 µM | [9] 8.95 µM | [10] 2.46 µM | [11] 8.69 µM | [12] 8.02 µM | [13] 5.47 µM | [14] 2.1 µM | [15] 16.2 µM | [16] 9.12 µM | [17] 11.8 µM | [18] 11.1 µM
active: [1] 0.676 µM | [2] 0.558 µM | [19] 0.671 µM

CN1C(=O)CN=C(c2ccccc2F)c2cc(N=C=S)ccc21
inactive: [1] 11.3 µM | [3] 44.3 µM | [4] 23.7 µM | [5] 61.7 µM | [6] 38.7 µM | [7] 41.4 µM | [8] 52.1 µM | [9] 45.8 µM | [10] 35.9 µM | [11] 62.4 µM | [12] 52 µM | [13] > 100 µM | [14] 45.9 µM | [15] 36.6 µM | [16] 92.3 µM | [17] 60 µM | [18] 37.4 µM | [19] 25.1 µM

Cc1ccc(S(=O)(=O)SC/C=C\CSS(=O)(=O)c2ccc(C)cc2)cc1
inactive: [1] 21.4 µM and 18.2 µM | [4] 14.4 µM and 16.2 µM | [5] 67 µM | [6] 39.2 µM and 28.1 µM | [8] 13.8 µM and 17.4 µM | [9] 16.4 µM | [10] 5.82 µM | [11] 16.6 µM and 12.4 µM | [12] 24.4 µM and 16 µM | [14] 19.9 µM | [15] 18 µM and 22.8 µM | [16] 47 µM | [17] 34.2 µM and 29.6 µM | [19] 17.6 µM and 20.9 µM

Cc1nc2cc(F)c(F)cc2[nH]c1=O
inactive: [1] > 100 µM | [2] > 100 µM | [3] > 100 µM | [4] > 100 µM | [5] 77.6 µM | [7] > 100 µM | [8] > 100 µM | [9] > 100 µM | [10] > 100 µM | [11] > 100 µM | [12] > 100 µM | [13] > 100 µM | [14] > 100 µM | [15] > 100 µM | [16] > 100 µM | [17] > 100 µM | [18] > 100 µM | [19] > 100 µM

COCO[C@@H]1C[C@H]2C(=O)N(COC)c3ccccc3C(=O)N2C1
inactive: [1] > 100 µM | [2] > 100 µM | [3] > 100 µM | [5] > 100 µM | [6] > 100 µM | [7] > 100 µM | [8] > 100 µM | [9] > 100 µM | [10] > 100 µM | [11] > 100 µM | [13] > 100 µM | [14] > 100 µM | [15] > 100 µM | [16] > 100 µM | [17] > 100 µM | [18] > 100 µM | [19] > 100 µM

CCC/C(Cl)=N\OC(=O)Nc1ccc(F)c([N+](=O)[O-])c1
inactive: [1] 4.3 µM | [2] 3.54 µM | [3] 26.2 µM | [4] 15 µM | [6] 15.3 µM | [7] 21.9 µM | [8] 14.7 µM | [9] 20.3 µM | [10] 16.2 µM | [11] 12.9 µM | [12] 15.6 µM | [13] 20.4 µM | [14] 15.2 µM | [16] 14.3 µM | [17] 15.2 µM | [18] 17 µM | [19] 18.7 µM

COC1=NC(NC2OCC(O)C(O)C2O)=C(NC(C)=O)CN1C (configuration not stated)
inactive: [1] > 100 µM | [2] > 100 µM | [3] > 100 µM | [4] > 100 µM | [5] > 100 µM | [7] > 100 µM | [8] > 100 µM | [9] > 100 µM | [10] > 100 µM | [11] > 100 µM | [12] > 100 µM | [13] > 100 µM | [15] > 100 µM | [16] > 100 µM | [17] > 100 µM | [18] > 100 µM | [19] > 100 µM

NC(CCCCNC(=O)CNC(=O)OCc1ccccc1)C(=O)NC(CCCCNC(=O)CNC(=O)OCc1ccccc1)C(=O)NC(CCCCNC(=O)CNC(=O)OCc1ccccc1)C(=O)NC(CCCCNC(=O)CNC(=O)OCc1ccccc1)C(=O)NC(CCCCNC(=O)CNC(=O)OCc1ccccc1)C(=O)NC(CCCCNC(=O)CNC(=O)OCc1ccccc1)C(=O)O (configuration not stated)
inactive: [1] > 75 µM | [3] > 75 µM | [6] > 75 µM | [7] > 75 µM | [8] > 75 µM | [9] > 75 µM | [10] > 75 µM | [11] > 75 µM | [12] > 75 µM | [13] > 75 µM | [14] > 75 µM | [16] > 75 µM | [17] > 75 µM | [20] > 75 µM | [18] > 75 µM | [19] > 75 µM

Cc1ccc(S(=O)(=O)N2CCN(S(=O)(=O)c3ccc(C)cc3)Cc3ccccc3C2)cc1
inactive: [1] 39.4 µM | [2] > 100 µM | [3] > 100 µM | [5] 24.5 µM | [6] > 100 µM | [7] > 100 µM | [8] 33 µM | [9] > 100 µM | [10] 34.3 µM | [11] 57.5 µM | [12] 56.8 µM | [13] > 10 µM | [16] > 100 µM | [17] 21.6 µM | [20] > 100 µM | [18] > 100 µM | [19] 10.1 µM
